The test system of data set [1] is Staphylococcus aureus. As to the kind of experiment: standard microtiter assay, minimum inhibitory concentration. The data set is classed as cell-based. As to conditions: for MIC: Table 5 organism 1 S. aureus. From the text:
(§1) Representative results of standard microtiter assays are reported in Tables 1, 2 and 3 which follow, as the minimum inhibitory concentration of antibiotic (μg/ml).
(§2) In Table 1, test organisms 1-13 were different strains of Staphylococcus aureus, and 14-16 were different strains of Staphylococcus epidermidis. In Table 2, test organisms 1-5 were different strains of S. aureus; 6, 8, 12 and 14 were different strains of S. epidermidis; 7 was a Staphylococcus haemolyticus; 9 and 10 were different strains of Streptococcus faecalis; 11 was a Streptococcus pyogenes; and 13 was a Staphylococcus saprophyticus. In Table 3, test organisms 1-3 were different strains of S. aureus; 4 and 6 were different strains of S. epidermidis; 5 was a S. haemolyticus and 7 and 8 were different strains of Streptococcus faecalis. Except where individual components are indicated, the CWI-785 antibiotic employed was the CWI-785 complex; in some cases, HCl salts of the CWI-785 antibiotic were employed.
(§3) The number of strains tested is shown in parentheses below each organism. The average MIC is reported in μg/ml.
(§4) In Table 5 are shown data from standard microtiter assays carried out in a presence of no serum, 50% human serum (hum.) and 50% mouse serum (mse.). The test organisms were 1: S. aureus; 2,4 and 5: different strains of S. epidermidis; 3: S. haemolyticus; 6: S. saprophyticus; 7 and 8: different strains of S. faecalis.

The test system of data set [2] is Streptococcus faecalis. The description is as above. The data set is classed as cell-based.
From the text: as §1, §2, §3, §4

Data set [3] concerns Staphylococcus epidermidis. The description is as above. Type of data set: cell-based.
From the text: as §1, §2, §4

Data set [4] concerns Staphylococcus haemolyticus. Described as above. The data set is classed as cell-based. As to conditions: for MIC: Table 5 organism 3 S. haemolyticus.
From the text: as §1, §2, §4

The test system of data set [5] is Staphylococcus saprophyticus. Described as above. Type of data set: cell-based. As to conditions: for MIC: Table 5 organism 6 S. saprophyticus.
From the text: as §1, §2, §4

The test system of data set [6] is Streptococcus pyogenes. Described as above. As to conditions: Table 2 test organism 11, Streptococcus pyogenes. Type of data set: cell-based.
From the text: as §1, §2

The format of data set [7] is physicochemical. An excerpt: The invention includes within its scope pharmaceutical compositions containing at least one of the above-mentioned antibiotic compounds and a pharmaceutically acceptable carrier. The compositions may also contain other active antibacterial agents. The compositions may be made up in any pharmaceutical form appropriate for the route of administration in question. Such compositions are exemplified by solid compositions for oral administration, such as tablets, capsules, pills, powders and granules; liquid compositions for oral administration such as solutions, suspensions, syrups and elixirs; preparations for parenteral administration such as sterile solutions, suspensions or emulsions; and preparations for topical administration such as gels, creams, ointments or salves. […] In 40% prophylene glycol in water (V/V), the solubility of HPB4 free base is greater than about 200 mg/ml. […] The solubility of HPB4.K is about 300 mg/ml. The solubility of HPB4.2HCl is about 600 mg/ml.
(§5) The solubility of the potassium salt is about 300 mg/ml in water.

A short description of data set [8]: pH of aqueous solution. The data set is classed as physicochemical. As to conditions: 100 mg/ml aqueous solution. As to the method:
as §5

Molecules are shown by their SMILES. Values after ≈ are worked out from the molar mass of the structure shown.

One may read the MIC as the smallest concentration in the dilution series that meets the test's criterion for growth inhibition. A higher MIC goes with a need for much substance. With `CNC(C(=O)NC1C(=O)NC(CC[S+](C)[O-])C(=O)NC2C(=O)NC3C(=O)NC(C(=O)NC(C(=O)O)c4cc(O)cc(O)c4-c4cc3ccc4O)C(OC3CC(N)C(O)C(C)O3)c3ccc(c(Cl)c3)Oc3cc2cc(c3O)Oc2ccc(cc2)C1O)c1ccc(O)cc1` (stereo not shown) [HPB3], the minimum inhibitory concentration in data set [1] (Table 2 test organism 1, S. aureus strain) amounted to 0.8 µg/mL (≈ 0.612 µM); in data set [1] (Table 2 test organism 2, S. aureus strain), 0.8 µg/mL (≈ 0.612 µM); in data set [1] (Table 2 test organism 3, S. aureus strain), 0.8 µg/mL (≈ 0.612 µM); in data set [1] (Table 2 test organism 4, S. aureus strain), 0.4 µg/mL (≈ 0.306 µM); in data set [1] (Table 2 test organism 5, S. aureus strain), 0.8 µg/mL (≈ 0.612 µM); in data set [2] (Table 2 test organism 9, Streptococcus faecalis strain), 0.8 µg/mL (≈ 0.612 µM). The minimum inhibitory concentration in data set [2] (Table 2 test organism 10, Streptococcus faecalis strain) stood at 0.8 µg/mL (≈ 0.612 µM); in data set [3] (Table 2 test organism 6, S. epidermidis strain), 0.8 µg/mL (≈ 0.612 µM); in data set [3] (Table 2 test organism 8, S. epidermidis strain), 0.8 µg/mL (≈ 0.612 µM); in data set [3] (Table 2 test organism 12, S. epidermidis strain) it was 0.8 µg/mL (≈ 0.612 µM); in data set [3] (Table 2 test organism 14, S. epidermidis strain), 0.8 µg/mL (≈ 0.612 µM); in data set [4] (Table 2 test organism 7, Staphylococcus haemolyticus) it was 1.6 µg/mL (≈ 1.22 µM). For the same compound, the minimum inhibitory concentration in data set [5] (Table 2 test organism 13, Staphylococcus saprophyticus) was 0.8 µg/mL (≈ 0.612 µM); in data set [6] it was 0.1 µg/mL (≈ 0.0765 µM). In addition, the MIC in data set [1] (50% Hum. Serum) came to 0.8 µg/mL (≈ 0.612 µM); in data set [1] (50% Mse. Serum), 0.8 µg/mL (≈ 0.612 µM); in data set [1] (No Serum), 0.8 µg/mL (≈ 0.612 µM); in data set [2] (Table 5 organism 7 S. faecalis, 50% Hum. Serum) it was 3.1 µg/mL (≈ 2.37 µM); in data set [2] (Table 5 organism 7 S. faecalis, 50% Mse. Serum) it was 3.1 µg/mL (≈ 2.37 µM); in data set [2] (Table 5 organism 7 S. faecalis, No Serum), 0.8 µg/mL (≈ 0.612 µM). Also, the MIC in data set [2] (Table 5 organism 8 S. faecalis, 50% Hum. Serum) turned out to be 6.3 µg/mL (≈ 4.82 µM); in data set [2] (Table 5 organism 8 S. faecalis, 50% Mse. Serum), 3.1 µg/mL (≈ 2.37 µM); in data set [2] (Table 5 organism 8 S. faecalis, No Serum) it was 0.8 µg/mL (≈ 0.612 µM); in data set [3] (Table 5 organism 2 S. epidermidis, 50% Hum. Serum), 6.1 µg/mL (≈ 4.66 µM); in data set [3] (Table 5 organism 2 S. epidermidis, 50% Mse. Serum), 1.6 µg/mL (≈ 1.22 µM); in data set [3] (Table 5 organism 2 S. epidermidis, No Serum), 0.8 µg/mL (≈ 0.612 µM). In addition, the MIC in data set [3] (Table 5 organism 4 S. epidermidis, 50% Hum. Serum) came out at 1.6 µg/mL (≈ 1.22 µM); in data set [3] (Table 5 organism 4 S. epidermidis, 50% Mse. Serum), 1.6 µg/mL (≈ 1.22 µM); in data set [3] (Table 5 organism 4 S. epidermidis, No Serum), 0.8 µg/mL (≈ 0.612 µM); in data set [3] (Table 5 organism 5 S. epidermidis, 50% Hum. Serum) it was 0.8 µg/mL (≈ 0.612 µM); in data set [3] (Table 5 organism 5 S. epidermidis, 50% Mse. Serum), 0.8 µg/mL (≈ 0.612 µM); in data set [3] (Table 5 organism 5 S. epidermidis, No Serum), 0.8 µg/mL (≈ 0.612 µM). In addition, the MIC turned out to be 6.3 µg/mL (≈ 4.82 µM) in data set [4] (50% Hum. Serum); 3.1 µg/mL (≈ 2.37 µM) in data set [4] (50% Mse. Serum); 1.6 µg/mL (≈ 1.22 µM) in data set [4] (No Serum); 3.1 µg/mL (≈ 2.37 µM) in data set [5] (50% Hum. Serum); 3.1 µg/mL (≈ 2.37 µM) in data set [5] (50% Mse. Serum); 0.8 µg/mL (≈ 0.612 µM) in data set [5] (No Serum).
Turning to `CNC(C(=O)NC1C(=O)NC(CCSC)C(=O)NC2C(=O)NC3C(=O)NC(C(=O)NC(C(=O)[O-])c4cc(O)cc(O)c4-c4cc3ccc4O)C(OC3CC(N)C(O)C(C)O3)c3ccc(c(Cl)c3)Oc3cc2cc(c3O)Oc2ccc(cc2)C1O)c1ccc(O)cc1.[K+]` (stereo not shown) [HPB4.K], the solubility result in data set [7] is given as “about 300 mg/ml”. Further, the “pH of aqueous solution” value in data set [8] worked out at 9.29.

Values taken from patent publication US4742045A, “Glycopeptide antibiotics” (SmithKline Beckman Corporation, priority 1986, dated 1988).
